Experiments:
DGKα = molecular target: T1, DGKα (Homo sapiens, UniProt P23743); test: In vitro DGKα inhibition assay (ADP-Glo); type: biochemical; settings: His-tagged human recombinant DGKα 0.1 nM, 50 μM ATP, 20 μM DLG, 90 minute incubation
T1 construct: His; purchased Signal Chem D21-10BH
Protocol: (§1) The DGKα and DGKζ biochemical reactions were performed using His-tagged human recombinant enzymes (Signal Chem, DGKα, #D21-10BH; DGKζ, #D30-10H)) and DLG (Dilauroyl-sn-glycerol) lipid substrate (Signal Chem, #D430-59). ADP-Glo assay was performed using ADP-Glo™ kinase Assay kit (Promega, #V9104). The reactions were carried out in assay buffer containing 40 mM Tris, pH 7.5, 0.1% CHAPS, 0.1% Prionex, 40 mM NaCl, 5 mM MgCl2, 1 mM CaCl2, and 1 mM DTT. DGKα reactions contained 0.1 nM DGKα, 50 μM ATP, and 20 μM DLG. And DGKζ reactions contained 0.4 nM DGKζ, 30 μM ATP, and 20 μM DLG.
(§2) Compounds were added with top concentration of 2 mM with 11 point, 3-fold dilution series. Enzyme solution (contains 2×DGK enzyme concentration in 1× assay buffer) was added to the plate in 2 μL/well volume, followed by 2 μL/well of substrate solution (contains 2× concentration of ATP and DLG substrate in 1× assay buffer). Plates were then centrifuged for 1 min at 1200 RPM and sealed or lidded. For 4 μL reaction volume, test compounds were therefore diluted 100× to final top concentration of 20 μM. After 90 minute incubation, reactions were quenched by addition of 2 μL/well Promega ADP-Glo Reagent, followed by centrifugation and lidding. After 60 min incubation, 2 μL/well Promega Kinase Detection Reagent was added, plates centrifuged, and incubated for 30 min. Plates were then read using Luminescence method on BMG PHERAstar FSX plate reader. Percent inhibition was calculated and IC50s were determined using 4-parameter fit in Genedata Screener. Labcyte Echo acoustic dispenser was used for compound addition, and Formulatrix Tempest liquid handler was used for all reagent dispenses.

DGKζ = molecular target: T2, DGKζ (Homo sapiens, UniProt Q13574); test: In vitro DGKζ inhibition assay (ADP-Glo); type: biochemical; settings: His-tagged human recombinant DGKζ 0.4 nM, 30 μM ATP, 20 μM DLG, 90 minute incubation
T2 construct: His; purchased Signal Chem D30-10H
Protocol: as §1, §2

T1 sequence (P23743 whole entry): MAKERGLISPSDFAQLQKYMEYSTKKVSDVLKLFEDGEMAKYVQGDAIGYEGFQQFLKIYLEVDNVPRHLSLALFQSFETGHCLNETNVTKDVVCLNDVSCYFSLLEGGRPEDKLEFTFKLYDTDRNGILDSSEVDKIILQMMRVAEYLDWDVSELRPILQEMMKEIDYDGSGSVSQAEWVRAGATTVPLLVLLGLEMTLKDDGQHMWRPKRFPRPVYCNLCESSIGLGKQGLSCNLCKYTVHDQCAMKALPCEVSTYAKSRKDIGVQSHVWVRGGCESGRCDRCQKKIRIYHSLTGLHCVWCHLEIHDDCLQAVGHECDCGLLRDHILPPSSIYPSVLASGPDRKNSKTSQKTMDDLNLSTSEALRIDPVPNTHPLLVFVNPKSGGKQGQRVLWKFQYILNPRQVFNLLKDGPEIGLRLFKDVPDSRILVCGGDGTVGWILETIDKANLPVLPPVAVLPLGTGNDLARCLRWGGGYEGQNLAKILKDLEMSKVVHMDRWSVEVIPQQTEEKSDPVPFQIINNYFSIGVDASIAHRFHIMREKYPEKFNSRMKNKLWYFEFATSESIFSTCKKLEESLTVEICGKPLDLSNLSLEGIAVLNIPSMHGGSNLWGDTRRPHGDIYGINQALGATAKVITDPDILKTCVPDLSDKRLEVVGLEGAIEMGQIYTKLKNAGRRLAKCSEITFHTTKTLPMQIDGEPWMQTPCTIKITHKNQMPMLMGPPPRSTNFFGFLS
T2 sequence (Q13574 whole entry): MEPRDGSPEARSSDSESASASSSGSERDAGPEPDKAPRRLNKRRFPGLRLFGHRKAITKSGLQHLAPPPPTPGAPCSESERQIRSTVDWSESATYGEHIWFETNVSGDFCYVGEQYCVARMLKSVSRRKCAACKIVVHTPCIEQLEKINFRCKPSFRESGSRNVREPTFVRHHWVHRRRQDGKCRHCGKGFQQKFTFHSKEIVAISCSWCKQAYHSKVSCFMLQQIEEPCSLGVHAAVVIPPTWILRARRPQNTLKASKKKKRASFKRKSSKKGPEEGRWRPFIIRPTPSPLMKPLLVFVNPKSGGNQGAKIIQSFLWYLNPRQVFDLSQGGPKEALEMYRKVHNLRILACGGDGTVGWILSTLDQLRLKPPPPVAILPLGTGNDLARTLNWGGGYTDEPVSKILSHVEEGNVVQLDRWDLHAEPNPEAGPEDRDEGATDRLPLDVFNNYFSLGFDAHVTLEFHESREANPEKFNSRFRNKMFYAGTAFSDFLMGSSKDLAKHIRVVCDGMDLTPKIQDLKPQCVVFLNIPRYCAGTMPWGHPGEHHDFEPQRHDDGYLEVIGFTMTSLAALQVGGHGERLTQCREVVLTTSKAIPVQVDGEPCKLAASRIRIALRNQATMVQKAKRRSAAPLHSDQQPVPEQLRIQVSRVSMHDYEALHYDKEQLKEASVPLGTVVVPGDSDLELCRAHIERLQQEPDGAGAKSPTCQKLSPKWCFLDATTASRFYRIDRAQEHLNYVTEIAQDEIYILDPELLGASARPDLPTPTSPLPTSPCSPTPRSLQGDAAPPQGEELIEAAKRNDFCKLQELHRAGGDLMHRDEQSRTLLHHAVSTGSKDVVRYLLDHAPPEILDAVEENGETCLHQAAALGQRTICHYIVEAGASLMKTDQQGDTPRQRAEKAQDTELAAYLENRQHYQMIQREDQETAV

Row | IC50 (DGKα) | IC50 (DGKζ) | SMILES
1 | < 20 nM | < 20 nM | C[C@@H]1CN(c2nc3nncn3c3c2ncn3C[C@@H]2CCCO2)[C@@H](C)CN1C(C[C@@H](C)C(F)(F)F)c1ccc(Cl)cc1 (single isomer, unassigned) [Example 11]
2 | 20 to 200 nM | < 20 nM | CC(C)[C@@H](c1ccc2cc(C(F)(F)F)ccc2n1)N1C[C@H](C)N(c2nc3nncn3c3c2ncn3C[C@@H]2CCCO2)C[C@H]1C [Example 83, 4-((2S,5R)-2,5-Dimethyl-4-((S)-2-methyl-1-(6-(trifluoromethyl)quinolin-2-yl)propyl)piperazin-1-yl)-1-(((S)-tetrahydrofuran-2-yl)methyl)-1H-[1,2,4]triazolo[3,4-b]purine]
3 | < 20 nM | < 20 nM | CC(C)[C@H](c1ccc2cc(C(F)(F)F)ccc2n1)N1C[C@H](C)N(c2nc3nncn3c3c2ncn3C[C@@H]2CCCO2)C[C@H]1C [Example 84, 4-((2S,5R)-2,5-dimethyl-4-((R)-2-methyl-1-(6-(trifluoromethyl)quinolin-2-yl)propyl)piperazin-1-yl)-1-(((S)-tetrahydrofuran-2-yl)methyl)-1H-[1,2,4]triazolo[3,4-b]purine]
4 | < 20 nM | < 20 nM | C[C@@H]1CN(c2nc3nncn3c3c2ncn3CC2(O)CCCC2)[C@@H](C)CN1C(c1ccc(Cl)cc1)C1CC(F)(F)C1 (stereo partly drawn) [Example 45, 1-((4-((2S,5R)-4-((4-Chlorophenyl)(3,3-difluorocyclobutyl)methyl)-2,5-dimethylpiperazin-1-yl)-1H-[1,2,4]triazolo[3,4-b]purin-1-yl)methyl)cyclopentan-1-ol]
5 | < 20 nM | < 20 nM | C[C@@H]1CN(c2nc3nncn3c3c2ncn3C[C@@H]2CCCO2)[C@@H](C)CN1C(c1ccc(Cl)cc1)C1CC1 (stereo partly drawn) [Example 10, 4-((2S,5R)-4-((4-Chlorophenyl)(cyclopropyl)methyl)-2,5-dimethylpiperazin-1-yl)-1-(((S)-tetrahydrofuran-2-yl)methyl)-1H-[1,2,4]triazolo[3,4-b]purine]
6 | < 20 nM | < 20 nM | C[C@@H]1CN(c2nc3nncn3c3c2ncn3C[C@@H]2CCCO2)[C@@H](C)CN1C(c1ccc(C(F)(F)F)cn1)c1ccc(C(F)(F)F)cn1 [Example 19, 4-((2S,5R)-4-(Bis(5-(trifluoromethyl)pyridin-2-yl)methyl)-2,5-dimethylpiperazin-1-yl)-1-(((S)-tetrahydrofuran-2-yl)methyl)-1H-[1,2,4]triazolo[3,4-b]purine]
7 | < 20 nM | < 20 nM | C[C@@H]1CN(c2nc3nncn3c3c2ncn3C[C@@H]2CCCO2)[C@@H](C)CN1C(c1ccc(Br)cc1)C1CC(F)(F)C1 (stereo partly drawn) [Example 33, 4-((2S,5R)-4-((4-Bromophenyl)(3,3-difluorocyclobutyl)methyl)-2,5-dimethylpiperazin-1-yl)-1-(((S)-tetrahydrofuran-2-yl)methyl)-1H-[1,2,4]triazolo[3,4-b]purine]
8 | < 20 nM | < 20 nM | CC[C@@H]1CN(c2nc3nncn3c3c2ncn3C[C@@H]2CCCO2)[C@@H](C)CN1C(c1ccc(C(F)(F)F)cc1)C1CC(F)(F)C1 (stereo partly drawn) [Example 35, 4-((2S,5R)-4-((3,3-Difluorocyclobutyl)(4-(trifluoromethyl)phenyl)methyl)-5-ethyl-2-methylpiperazin-1-yl)-1-(((S)-tetrahydrofuran-2-yl)methyl)-1H-[1,2,4]triazolo[3,4-b]purine]
9 | < 20 nM | < 20 nM | C[C@@H]1CN(c2nc3nncn3c3c2ncn3C[C@@H]2CCCO2)[C@@H](C)CN1C(c1ccc(C(F)(F)F)cc1)[C@@H]1CC1(F)F (single isomer, unassigned) [Example 13]
10 | < 20 nM | < 20 nM | C[C@@H]1CN(c2nc3nncn3c3c2ncn3C[C@@H]2CCCO2)[C@@H](C)CN1C(c1ccc(C(F)(F)F)cc1)C1CC(F)(F)C1 (single isomer, unassigned) [Example 1]
11 | < 20 nM | < 20 nM | CC[C@@H]1CN(c2nc3nncn3c3c2nc(C)n3C[C@@H]2CCCO2)[C@@H](C)CN1C(c1ccc(Cl)cc1)C1CC(F)(F)C1 (stereo partly drawn) [Example 78, 4-((2S,5R)-4-((4-Chlorophenyl)(3,3-difluorocyclobutyl)methyl)-5-ethyl-2-methylpiperazin-1-yl)-2-methyl-1-(((S)-tetrahydrofuran-2-yl)methyl)-1H-[1,2,4]triazolo[3,4-b]purine]

The remaining lines, values behind:

Row | SMILES | IC50 (DGKα) | IC50 (DGKζ)
12 | CC[C@@H]1CN(c2nc3nncn3c3c2nc(C)n3C[C@@H]2CCCO2)[C@@H](C)CN1[C@H](C)c1ccc(C(F)(F)F)cc1 [Example 42, 4-((2S,5R)-5-ethyl-2-methyl-4-((R)-1-(4-(trifluoromethyl)phenyl)ethyl)piperazin-1-yl)-2-methyl-1-(((S)-tetrahydrofuran-2-yl)methyl)-1H-[1,2,4]triazolo[3,4-b]purine] | < 20 nM | < 20 nM
13 | Cc1nc2c(N3C[C@@H](C)N(C(c4ccc(Cl)cc4F)C4CC(F)(F)C4)C[C@@H]3C)nc3nncn3c2n1C[C@@H]1CCCO1 (stereo partly drawn) [Example 5, 4-((2S,5R)-4-((4-Chloro-2-fluorophenyl)(3,3-difluorocyclobutyl)methyl)-2,5-dimethylpiperazin-1-yl)-2-methyl-1-(((S)-tetrahydrofuran-2-yl)methyl)-1H-[1,2,4]triazolo[3,4-b]purine] | < 20 nM | < 20 nM
14 | C[C@@H]1CN(c2cc3nncn3c3c2ncn3C[C@@H]2CCCO2)[C@@H](C)CN1C(c1ccc(F)cc1)c1ccc(F)cc1 [Example 43, 4-((2S,5R)-4-(Bis(4-fluorophenyl)methyl)-2,5-dimethylpiperazin-1-yl)-1-(((S)-tetrahydrofuran-2-yl)methyl)-1H-imidazo[4,5-e][1,2,4]triazolo[4,3-a]pyridine] | < 20 nM | < 20 nM
15 | Cc1nc2c(N3C[C@@H](C)N(Cc4ccc(Cl)cc4)C[C@@H]3C)nc3nncn3c2n1C[C@@H]1CCCO1 [Example 70, 4-((2S,5R)-4-(4-Chlorobenzyl)-2,5-dimethylpiperazin-1-yl)-2-methyl-1-(((S)-tetrahydrofuran-2-yl)methyl)-1H-[1,2,4]triazolo[3,4-b]purine] | < 20 nM | < 20 nM
16 | Cc1nc2c(N3C[C@@H](C)N([C@H](c4ccc(Cl)cc4F)C(C)C)C[C@@H]3C)nc3nncn3c2n1C[C@@H]1CCCO1 [Example 28, 4-((2S,5R)-4-((S)-1-(4-Chloro-2-fluorophenyl)-2-methylpropyl)-2,5-dimethylpiperazin-1-yl)-2-methyl-1-(((S)-tetrahydrofuran-2-yl)methyl)-1H-[1,2,4]triazolo[3,4-b]purine] | < 20 nM | < 20 nM
17 | CC[C@H](c1ccc(Cl)cc1)N1C[C@H](C)N(c2nc3nncn3c3c2nc(C)n3C[C@@H]2CCCO2)C[C@H]1C [Example 86, 4-((2S,5R)-4-((R)-1-(4-chlorophenyl)propyl)-2,5-dimethylpiperazin-1-yl)-2-methyl-1-(((S)-tetrahydrofuran-2-yl)methyl)-1H-[1,2,4]triazolo[3,4-b]purine] | < 20 nM | < 20 nM
18 | Cc1nc2c(N3C[C@H]4CC[C@@H](C3)N4C(c3ccc(F)cc3)c3ccc(F)cc3)nc3nncn3c2n1C[C@@H]1CCCO1 [Example 82, 4-((1R,5S)-8-(Bis(4-fluorophenyl)methyl)-3,8-diazabicyclo[3.2.1]octan-3-yl)-2-methyl-1-(((S)-tetrahydrofuran-2-yl)methyl)-1H-[1,2,4]triazolo[3,4-b]purine] | < 20 nM | < 20 nM
19 | Cc1nc2c(N3C[C@@H](C)N([C@@H](c4ccc(Cl)cc4F)C(C)C)C[C@@H]3C)nc3nncn3c2n1C[C@@H]1CCCO1 [Example 29, 4-((2S,5R)-4-((R)-1-(4-chloro-2-fluorophenyl)-2-methylpropyl)-2,5-dimethylpiperazin-1-yl)-2-methyl-1-(((S)-tetrahydrofuran-2-yl)methyl)-1H-[1,2,4]triazolo[3,4-b]purine] | < 20 nM | < 20 nM
20 | Cc1nc2c(N3C[C@@H](C)N(C(c4ccc(Cl)cc4)C4CC(F)(F)C4)C[C@@H]3C)cc3nncn3c2n1C[C@@H]1CCCO1 (single isomer, unassigned) [Example 62] | < 20 nM | < 20 nM
21 | Cc1nc2c(N3C[C@@H](C)N(C(CC(C)C)c4ccc(Cl)c(F)c4)C[C@@H]3C)nc3nncn3c2n1C[C@@H]1CCCO1 (single isomer, unassigned) [Example 18] | < 20 nM | < 20 nM
22 | Cc1nc2c(N3C[C@@H](C)N(Cc4cc(F)c(Cl)c(C(F)(F)F)c4)C[C@@H]3C)nc3nncn3c2n1C[C@@H]1CCCO1 [Example 74, 4-((2S,5R)-4-(4-Chloro-3-fluoro-5-(trifluoromethyl)benzyl)-2,5-dimethylpiperazin-1-y1)-2-methyl-1-(((S)-tetrahydrofuran-2-yl)methyl)-1H-[1,2,4]triazolo[3,4-b]purine] | < 20 nM | < 20 nM

From patent US20250179083A1, “TRICYCLIC TRIAZOLO COMPOUNDS AS DGK INHIBITORS” (Incyte Corporation, priority 2023, published 2025)
